For the test, the system named is gene expression in four canine cell lines: CCL34 (kidney), CRL1430 (thymus), CCL183 (bone), CTAC (thyroid). Nature of the test: Effect of test substances or ingredients on gene expression in canine cell lines (Affymetrix Canine-1 and Canine-2 gene chips). It counts as cell-based. The note with it: for Direction of gene expression, probe 1605486_at: pyruvate dehydrogenase kinase 4 mRNA; for Direction of gene expression, probe 1605486_at / Direction of gene expression, probe 6282824_at: two concentrations per ingredient (Table 6), vs solvent control; for Direction of gene expression, probe 6282824_at: Canis familiaris carnitine palmitoyl transferase I isoform (CPT1) mRNA, human BC000185; for Direction of gene expression, probe 6283403_at: Sus scrofa carnitine palmitoyltransferase I mRNA, human AK172798. From the text:
Cells cultured from mammalian cell lines are used to isolate good quality RNA which is then used for future downstream genomic analysis. All work related to the culturing of the cells is to be done under strict aseptic conditions. Procedure: Removing Cells from the OptiCell Chamber (proceed one OptiCell at a time). Check the cells under a microscope to ensure that the cells are alive before isolating RNA. Remove and discard the cell culture medium. Using the OptiCell knife cut away the top membrane exposing the cells on the lower membrane. Wash the membrane to which the cells are attached three times with 1X PBS. Pipette 600 uL of the Buffer RLT solution (containing R-Mercaptoethanol) onto the center of the membrane to which the cells are attached. Using the cell scraper, gently spread the Buffer RLT over the entire surface of the membrane, and then collect the liquid in one corner. Pipette off the entire volume of Buffer RLT and place into a QIAshredder spin column. RNA Isolation: Centrifuge the QIAshredder spin columns at 14,000 rpm for 2 minutes. Discard the spin column but keep the collection tube and its contents. Add 600 uL of 70% ethanol to the collection tube and mix well by pipetting (the total volume now=1.2 mL). Transfer 600 uL of the cell lysate to an RNeasy mini column and centrifuge for 15 seconds at 14,000 rpm. Discard the flow through but keep the collection tube and the spin column. Transfer the remaining volume of cell lysate (˜600 uL) to the spin column and repeat the centrifugation. Discard the flow through but keep the collection tube and the spin column. Add 700 uL Buffer RW1 to the spin column. Centrifuge for 15 seconds at 14,000 rpm to wash the column. Discard the flow through and the collection tube. Transfer the spin column to a new 2 mL collection tube and add 500 uL Buffer RPE to the column. Centrifuge for 15 seconds at 14,000 rpm. Discard the flow through, keep the collection tube/column. Add another 500 uL Buffer RPE to the column. Centrifuge for 2 minutes at 14,000 rpm. Transfer the spin column to a 1.5 mL collection tube. […] Store the final RNA at −70° C. Gene expression was analyzed using Affymetrix Canine 1 and Canine 2 GeneChip® Arrays available commercially from Affymetrix, Inc., Santa Clara, Calif. 95051. Total RNA is reverse transcribed into cDNA. The cDNA is used to generate cRNA which is fragmented and used as probes for GeneChip hybridization. The gene chip is washed and the hybridization signal is measured with an Affymetrix laser scanner. The hybridization data is then validated and normalized for further analysis. Procedure: All procedures follow exactly as described in GeneChip Expression Analysis Technical Manual (Affymetrix Copyright 1999-2003). Use 5 microgram of total RNA for the first strand cDNA synthesis. Use either Peltier Thermal Cycler PTC-200 or heat block for temperature control on reactions and probe denaturing. The quality control is performed using RNA […] chips with BioAnalyer 2100. Use 100 Format (Midi Array) for the canine genechip. […] TAGs; ALA: EPA: DHA; linoleic acid; stearic acid (SA), conjugated linoleic acid (CLA), GLA; arachidonic acid; lecithin; vitamin A, vitamin D, vitamin E, vitamin K, riboflavin, niacin, pyridoxine, pantothenic acid, folic acid, biotin vitamin C, catechin, quercetin, theaflavin; ubiquinone: lycopene, lycoxanthin; resveratrol; α-lipoic acid; L-carnitine; D-limonene; glucosamine; S-adenosylmethionine; chitosan, various materials containing one or more of these compounds, and various combination thereof on gene expression in four canine cell lines and appropriate controls. The solvent at the higher of the two concentrations was used as a control. Four canine cell lines are used: CCL34 (kidney), CRL1430 (thymus), CCL183 (bone) (Obtained from The American Tissue Culture Collection) and CTAC (thyroid) (See, Measurement of NK Activity in Effector Cells Purified from Canine Peripheral Lymphocytes. Veterinary Immunology and Immunopathology, 35 (1993) 239-251). […]

Consider `CC/C=C\C/C=C\C/C=C\CCCCCCCC(=O)O` [ALA, α-linolenic acid], for which, where the note is “Canis familiaris type I collagen pre-pro-alpha1(I) chain (COL1A1) mRNA, human AB209597”, the “Direction of gene expression, probe 6282455_at” value is on record as “DOWN (down-regulated if its value is <1/1.5 (for across all 4 cell lines analysis) or <½ (for within cell lines analysis))”. The “Direction of gene expression, probe 1605486_at” value (shortened to “Direction … probe 1605486_at”) (human AK096428) is listed as “UP (up-regulated if it is >1.5 (for across all 4 cell lines analysis) or >2 (for within cell lines analysis))”.
On to `CCCCC/C=C\C/C=C\C/C=C\C/C=C\CCCC(=O)O` [ARA, arachidonic acid], for which the “Direction of gene expression, probe 6282824_at” value (“Direction … probe 6282824_at” below) was “UP (up-regulated if it is >1.5 (for across all 4 cell lines analysis) or >2 (for within cell lines analysis))” and the “Direction of gene expression, probe 6283403_at” value was “UP (up-regulated if it is >1.5 (for across all 4 cell lines analysis) or >2 (for within cell lines analysis))”. In addition, the “Direction of gene expression, probe 1602749_at” value (Homo sapiens BAC clone RP11-44D21 from 4, human AC108866) is “UP (up-regulated if it is >1.5 (for across all 4 cell lines analysis) or >2 (for within cell lines analysis))”. Besides, for the setting “human AK096428”, the “Direction … probe 1605486_at” value is recorded as “UP (up-regulated if it is >1.5 (for across all 4 cell lines analysis) or >2 (for within cell lines analysis))”.
As to `CC/C=C\C/C=C\C/C=C\C/C=C\C/C=C\C/C=C\CCC(=O)O` [DHA, docosahexaenoic acid], the “Direction … probe 6282824_at” value is listed as “UP (up-regulated if it is >1.5 (for across all 4 cell lines analysis) or >2 (for within cell lines analysis))”. Moreover, the “Direction of gene expression, probe 6287734_at” value (Canis familiaris similar to Na/Pi cotransporter 4 (LOC478741) mRNA, human BC017952) is “UP (up-regulated if it is >1.5 (for across all 4 cell lines analysis) or >2 (for within cell lines analysis))”. For the same compound, the “Direction … probe 1605486_at” value (human AK096428) is on record as “UP (up-regulated if it is >1.5 (for across all 4 cell lines analysis) or >2 (for within cell lines analysis))”.
In the case of `CC/C=C\C/C=C\C/C=C\C/C=C\C/C=C\CCCC(=O)O` [EPA, eicosapentaenoic acid], the “Direction of gene expression, probe 6283403_at” value is listed as “UP (up-regulated if it is >1.5 (for across all 4 cell lines analysis) or >2 (for within cell lines analysis))”. Moreover, the “Direction … probe 1605486_at” value (human AK096428) is on record as “UP (up-regulated if it is >1.5 (for across all 4 cell lines analysis) or >2 (for within cell lines analysis))”. For the same compound, the “Direction of gene expression, probe 6283329_at” value (similar to secreted frizzled-related protein 4, human AC018634) was “DOWN (down-regulated if its value is <1/1.5 (for across all 4 cell lines analysis) or <½ (for within cell lines analysis))”.
In the case of `CCCCC/C=C\C/C=C\CCCCCCCC(=O)O` [LA, linoleic acid], the “Direction … probe 6282824_at” value is “UP (up-regulated if it is >1.5 (for across all 4 cell lines analysis) or >2 (for within cell lines analysis))”. Besides, the “Direction of gene expression, probe 6282385_at” value (Canis familiaris Na+-dependent glutamate transporter (GLAST) mRNA, human D26443) was “DOWN (down-regulated if its value is <1/1.5 (for across all 4 cell lines analysis) or <½ (for within cell lines analysis))”. Further, the “Direction … probe 1605486_at” value (human AK096428) is given as “UP (up-regulated if it is >1.5 (for across all 4 cell lines analysis) or >2 (for within cell lines analysis))”.
Take `CCCCCCCCCCCCCCCCCC(=O)O` [SA, stearic acid]: the “Direction of gene expression, probe CfaAffx.9845.1.S1_s_at” value (Canis familiaris similar to leucine rich repeat containing 45 (LOC483375), human NM_144999) is listed as “UP (up-regulated if it is >1.5 (for across all 4 cell lines analysis) or >2 (for within cell lines analysis))”. In addition, the “Direction of gene expression, probe Cfa.2282.1.S1_at” value (Canis familiaris similar to pyruvate dehydrogenase kinase isoform 4 (LOC482310) mRNA, human AK096428) is reported as “UP (up-regulated if it is >1.5 (for across all 4 cell lines analysis) or >2 (for within cell lines analysis))”. Further, the “Direction of gene expression, probe Cfa.791.4.A1_at” value (Canis familiaris similar to ribosomal protein L24, transcript variant 2 (LOC478547), human NM_000986) is given as “UP (up-regulated if it is >1.5 (for across all 4 cell lines analysis) or >2 (for within cell lines analysis))”.
Consider conjugated linoleic acid [CLA], for which the “Direction of gene expression, probe Cfa.10478.1.A1_at” value (Bos taurus similar to Type II inositol-1,4,5-trisphosphate 5-phosphatase precursor (LOC538291), human AC005691) is “UP (up-regulated if it is >1.5 (for across all 4 cell lines analysis) or >2 (for within cell lines analysis))”. The “Direction of gene expression, probe Cfa.11267.1.A1_at” value (Homo sapiens cDNA clone IMAGE: 4456146, human BC024645) is given as “DOWN (down-regulated if its value is <1/1.5 (for across all 4 cell lines analysis) or <½ (for within cell lines analysis))”. The “Direction of gene expression, probe Cfa.11358.1.A1_at” value (Homo sapiens solute carrier family 20 (phosphate transporter), member 2 (SLC20A2) mRNA, human AF170802) is given as “UP (up-regulated if it is >1.5 (for across all 4 cell lines analysis) or >2 (for within cell lines analysis))”.

For the origin of these results see patent US20150242566A1, “Methods and Systems for Designing Animal Food Compositions” (Hill's Pet Nutrition, Inc., priority 2005, published 2015).
